Measured values published in US20080085867A1, “Early detection and prognosis of colon cancers” (The Johns Hopkins University, priority 2006, published 2008).

What was measured:
HCT116 cells = experiment: Microarray gene expression of drug-treated cells versus mock-treated cells; format: cell-based, human; settings: for expression response of the 11 hypermethylated guide genes: 300 nM TSA 18 hours or 5 μM DAC 96 hours
Procedure: Cell culture and treatment. HCT116 cells and isogenic genetic knockout derivatives were maintained as previously described (Rhee et al^1). For drug treatments, log phase HCT116 cells were cultured in McCoys 5A media (Invitrogen) containing 10% BCS and 1× penicillin/streptomycin with 5 μM 5-aza-deoxycytidine (DAC) (Sigma; stock solution: 1 mM in PBS) for 96 hours, replacing media and DAC every 24 hours. Cell treatment with 300 nM Trichostatin A (Sigma; stock solution: 1.5 mM dissolved in Ethanol) was performed for 18 hours. Control cells underwent mock treatment in parallel with addition of equal volume of PBS without drugs.
Microarray analysis. Total RNA was harvested from log phase cells using the Qiagen kit according to the manufacturers instructions, including a DNAase step. RNA was quantified using the Nanoprop ND-100 followed by quality assessment with 2100 Bioanalyzer (Agilent Technologies). RNA concentrations for individual samples were greater than 200 ng/ul, with 28 s/18 s ratios greater than 2.2 and RNA integrity numbers of 10. Sample amplification and labeling procedures were carried out using the Low RNA Input Fluorescent Linear Amplification Kit (Agilent Technologies) according to the manufacturers instructions. The labeled cRNA was purified using the RNeasy mini kit (Qiagen) and quantified. RNA spike-in controls (Agilent Technologies) were added to RNA samples before amplification. 0.75 microgram of samples labeled with Cy3 or Cy5 were mixed with control targets (Agilent Technologies), assembled on Oligo Microarray, hybridized, and processed according to the Agilent microarray protocol. Scanning was performed with the Agilent G2565BA microarray scanner under default settings recommended by Agilent Technologies.
Data analysis. All arrays were subject to quality checks recommended by the manufacturer. […] The log ratio of red signal to green signal was calculated after background-subtraction and LoEss normalization as implemented in the limma package from Bioconductor (Smyth et al. 1; Smyth et al. 2). […]

colorectal cell lines = experiment: RT-PCR re-expression of Neuralized and FOXL2 in colorectal cancer cell lines; format: cell-based, human; settings: DAC treatment, panel of colorectal cell lines
Procedure: Cell culture and treatment. HCT116 cells and isogenic genetic knockout derivatives were maintained as previously described (Rhee et al^1). For drug treatments, log phase HCT116 cells were cultured in McCoys 5A media (Invitrogen) containing 10% BCS and 1× penicillin/streptomycin with 5 μM 5-aza-deoxycytidine (DAC) (Sigma; stock solution: 1 mM in PBS) for 96 hours, replacing media and DAC every 24 hours. Cell treatment with 300 nM Trichostatin A (Sigma; stock solution: 1.5 mM dissolved in Ethanol) was performed for 18 hours. Control cells underwent mock treatment in parallel with addition of equal volume of PBS without drugs. Methylation and gene expression analysis. RNA was isolated with TRIzolTM Reagent (Invitrogen) according to the manufacturer's instructions. For reverse transcription-PCR (RT-PCR), 1 μg of total RNA was reverse transcribed by using Ready-To-GoTM You-Prime First-Strand Beads (Amersham Biosciences) with addition of random hexamers (0.2 μg per reaction). […] For MSP analysis, DNA was extracted following a standard phenol-chloroform extraction method. Bisulfite modification of genomic DNA was carried out using the EZ DNA methylation KitTM (Zymo Research). […] MSP was performed as previously described (Herman et al.). […]

SMILES | expression response of the 11 hypermethylated guide genes (HCT116 cells) | DAC induced expression for genes in the TSA non-response zone (HCT116 cells; 5 μM DAC, 96 hours) [fold] | re-expression of hypermethylated Neuralized and FOXL2 genes (colorectal cell lines)
CC(/C=C/C(=O)NO)=C\[C@@H](C)C(=O)c1ccc(N(C)C)cc1 [TSA, Trichostatin A] | remained within the TSA non-responsive zone | – | –
Nc1ncn([C@H]2C[C@H](O)[C@@H](CO)O2)c(=O)n1 [DAC, 5-aza-deoxycytidine] | four (SFRP1, TFF2, TFF3, and CHFR) demonstrated re-expression responses near the top | > 2 | ability to re-express the genes
